Measured values reported in patent publication US6867186B2, “Cell-permeable protein inhibitors of calpain” (New England Medical Center Hospital, priority 1997, dated 2005).
Where two headings read alike, the source gives them in different places. Values belong to the molecule of their own block, whether it stands above or below them. Peptide text beside a SMILES is read from it. * marks the point of attachment. Cbz = O=C(OCc1ccccc1)*; CHN2 = [N-]=[N+]=C*

Legend:
gel filtered platelets = experiment: Thrombin-induced platelet aggregation (aggregometer); type: cell-based, human; settings: for IC50: initial rate during first 15 seconds, NI=no inhibition, peptidyl inhibitors 10 min pre-incubation, read-out: IC50, initial rate of thrombin-induced platelet aggregation; for effect on platelet aggregation: thrombin or SFLLR induced
Protocol: In one series of experiments, platelets were purified from […] on a SEPHAROSE 2B column in PIPES buffered saline containing glucose, pre-incubated with 45 μM calpastat or S-TIPPEY-ala for 30 minutes at 37° C., and placed in a cuvette in a BIODATA aggregometer. The aggregometer measures turbidity of the solution by nephlometry (light scatter). Aggregation was induced with thrombin (0.1 to 1 unit/ml) or the thrombin receptor agonist peptide SFLLR (SEQ ID NO:5). […] In contrast, S-TIPPEY-ala had no activity. A version of S-TIPPEYIN lacking the signal sequence similarly had no activity.
In another series of experiments, gel filtered platelets were obtained and tested as follows. Blood from healthy, aspirin-free volunteers was collected by venipuncture into 4% sodium citrate (9:1 v/v, final concentration 0.4%) and centrifuged at 200×g for 20 minutes to obtain platelet rich plasma (PRP). Following incubation with apyrase (4 units/ml for 5 minutes at room temperature), platelets were purified from PRP by gel-filtration at room temperature using a Sepharose 2B column equilibrated in PIPES buffer (25 mM PIPES pH 6.8, 140 mM NaCl, 4 mM KCl, and 0.1% glucose) (Hsu-Lin, et al., J. Biol. Chem. 259:9121-9126, 1984). Final gel filtered platelet concentrations were about 1.5×10^8 cells/ml.
Gel filtered platelets (250 μl aliquots at 1.6×10^8/ml) were incubated with the indicated concentration of calpastat or mutant calpastat-ala for either 20 or 30 minutes at 37° C. in the absence of calcium and stirring. To test peptidyl calpain inhibitors, platelets were preincubated with the indicated concentration of calpeptin, MDL, E64d, DMSO (vehicle control) or NH4Cl (cathepsin control) for 10 minutes at 37° C. Following incubation, platelets were recalcified (CaCl2, 2 mM) and stimulated with 0.05-1.0 unit/ml thrombin, while being stirred (1400 rpm) at 37° C. The sensitivity of platelet preparations to thrombin decreased over the course of a given experiment. The thrombin concentration used was to elicit robust aggregation and varied between 0.05 and 1.0 U/ml. Aggregation was measured using a Bio-Data lumi-aggregometer. Percent inhibition of aggregation was measured at 4 minutes following the onset of aggregation. The initial rate of aggregation during the first 15 seconds for treated vs. untreated samples was used to calculate the IC50 for each inhibitor.

platelets [1] = experiment: cells
Protocol: To determine whether S-TIPPEYIN could inhibit α-granule secretion in platelets, surface expression of P-selectin, which indicates α-granule secretion, was induced with the thrombin peptide SFLLR (SEQ ID NO:5) and analyzed by flow cytometry using an antibody against P-selectin. Blood from healthy volunteers was collected into sodium citrate (4% w/v) and centrifuged at 200×g for 10 minutes to prepare platelet-rich plasma (PRP), from which platelets were subsequently purified by gel filtration using a SEPHAROSE 2B column in PIPES buffer. Twenty μl of platelets (approximately 2×10^8 platelets/ml) were aliquoted into eppendorf tubes and one μl of S-TIPPEYIN, TIPPEYIN (lacking the signal peptide sequence), or S-TIPPEY-ala was added to achieve final concentrations of 6.25, 12.5, 25, 50, or 100 μM. The platelets were then incubated for 2 hours at 37° C. and subsequently exposed to either 1 μl PBS (unstimulated) or 1 μl of SFLLR (SEQ ID NO:5; stimulated) at the indicated concentration. After 30 seconds, a 7.5 μl aliquot was transferred to an eppendorf tube containing non-immune serum having antibodies that were conjugated to phycoerythrin. Following a 20 minute incubation at room temperature, the mixture was diluted with 1 ml of 2% paraformaldehyde and incubated at 4° C. for two hours. Antibody binding to platelet surface P-selectin was quantified using a FACSCAN flow cytometer (Becton Dickerson, San Jose, Calif.). Results were reported as the geometric mean of the relative fluorescence.
Platelets were pre-incubated with increasing concentrations of calpeptin, MDL, E64d, or DMSO (vehicle control) for ten minutes prior to stimulation with SFLLR.

platelets [2] = experiment: cells; type: cell-based; settings: for IC50 / effect on platelet spreading: spreading on glass; for IC50: NI=no inhibition, read-out: IC50, inhibition of platelet spreading
Protocol: Platelet activation on surfaces can be inhibited by […] or […] fusion proteins. […] The cellular area of spread platelets was determined by computer assisted image analysis using NIH Image 1.61. […] Percent inhibition of spreading was calculated from the increase in mean cell area for untreated and treated samples vs. unspread DMSO controls.

calpain = experiment: Ionophore-dependent calpain degradation of ABP and talin in platelets; type: cell-based; settings: 5, 8, or 10 minutes A23187
Protocol: To investigate whether calpastat inhibits calpain activity in platelets, the ionophore-dependent proteolysis of actin binding protein (ABP; about 280 kDa) and talin (about 240 kDa), both of which are substrates of both μ- and m-calpains, was examined as follows.
Platelets were pre-incubated with ZLLYCHN2, DMSO (solvent for ZLLY-CHN2), calpastat, or HEPES buffer (buffer for calpastat), and then treated with or without ionophore A23187 for 5, 8, or 10 minutes. The platelets were then gel-purified as described above. Whole cell lysates were prepared and fractionated by SDS polyacrylamide gel electrophoresis.

HIV-1 = settings: 24 h
Protocol: (§1) U1 is a human promonocytic cell line that is chronically infected with HIV-1 and that constitutively expresses low levels of HIV-1. […] In the present experiment, 1×10^6 cells/ml were treated with various dosages of calpastat and incubated for one hour at 37° C. After incubation, various concentrations of Tpg were added to the calpastat-treated cells and aliquoted into a 24-well plate. To observe the stimulation of HIV-1 activity by Tpg, equivalent numbers of cells were treated with Tpg alone. The cells were then incubated at 37° C. for up to four days, and supernatants from the cell culture were collected each day to measure HIV-1 activity. The viability of cells treated with both Tpg and calpastat were determined each day by Trypan-blue exclusion test. The HIV-1 activity in the collected supernatants was determined by measuring the HIV-1 p24 core antigen protein by ELISA (Dupont Medical Products, Boston, Mass.) according to the manufacturer's instructions.
In another series of experiments, U1 cells, which are latently infected with HIV-1 provirus, were plated at 10^6 cells/well in 1 ml of medium and treated with varying concentrations of either calpastat (FIG. 7E) or calpeptin (benzyloxycarbonyl-leucyl-norleucinal) (FIG. 7F) for 45 minutes before addition of thapsigargin (4 nM final concentration). […] After 48 hours of stimulation, HIV-1 p24 antigen levels were determined in 200 μl of tissue culture supernatant, using a p24 ELISA (DuPont). All assays were performed on triplicate cultures.

U1 cells = experiment: U1 cell viability (Trypan-blue exclusion); type: cell-based, human; settings: for U1 cell viability: 96 hr
Protocol: as §1
In another series of experiments, U1 cells, which are latently infected with HIV-1 provirus, were plated at 10^6 cells/well in 1 ml of medium and treated with varying concentrations of either calpastat (FIG. 7E) or calpeptin (benzyloxycarbonyl-leucyl-norleucinal) (FIG. 7F) for 45 minutes before addition of thapsigargin (4 nM final concentration). The viability of U1 monocytes was 90% at 48 hours of thapsigargin (4 nM) treatment, in the presence or absence of calpain inhibitors. After 48 hours of stimulation, HIV-1 p24 antigen levels were determined in 200 μl of tissue culture supernatant, using a p24 ELISA (DuPont). All assays were performed on triplicate cultures. Mean values and standard deviations are shown for each concentration of inhibitor (FIGS. 7E-7F).

[3] = target: T1, purified µ-calpain (porcine erythrocyte) (porcine, UniProt P35750 1-714; P04574 1-266, limits assumed); experiment: cell-based or functional assay
T1 sequence (looked up) 1: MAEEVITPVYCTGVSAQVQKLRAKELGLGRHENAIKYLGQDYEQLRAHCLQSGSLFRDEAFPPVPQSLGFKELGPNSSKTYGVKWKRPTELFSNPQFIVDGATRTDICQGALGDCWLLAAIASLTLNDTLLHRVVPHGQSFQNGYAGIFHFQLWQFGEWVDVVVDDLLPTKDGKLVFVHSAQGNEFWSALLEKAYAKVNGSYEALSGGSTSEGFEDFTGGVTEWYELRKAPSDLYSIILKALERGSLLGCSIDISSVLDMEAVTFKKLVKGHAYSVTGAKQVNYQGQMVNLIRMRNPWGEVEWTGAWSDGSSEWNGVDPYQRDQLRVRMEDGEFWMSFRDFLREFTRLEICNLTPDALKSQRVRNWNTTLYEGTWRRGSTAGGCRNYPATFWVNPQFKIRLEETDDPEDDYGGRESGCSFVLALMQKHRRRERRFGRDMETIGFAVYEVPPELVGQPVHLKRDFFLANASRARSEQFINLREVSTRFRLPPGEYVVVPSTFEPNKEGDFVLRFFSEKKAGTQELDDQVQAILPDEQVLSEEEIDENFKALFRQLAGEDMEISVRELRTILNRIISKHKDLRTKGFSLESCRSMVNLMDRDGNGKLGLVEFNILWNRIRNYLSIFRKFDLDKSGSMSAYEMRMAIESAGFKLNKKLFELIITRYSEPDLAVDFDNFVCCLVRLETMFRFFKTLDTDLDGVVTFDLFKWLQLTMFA
T1 sequence (looked up) 2: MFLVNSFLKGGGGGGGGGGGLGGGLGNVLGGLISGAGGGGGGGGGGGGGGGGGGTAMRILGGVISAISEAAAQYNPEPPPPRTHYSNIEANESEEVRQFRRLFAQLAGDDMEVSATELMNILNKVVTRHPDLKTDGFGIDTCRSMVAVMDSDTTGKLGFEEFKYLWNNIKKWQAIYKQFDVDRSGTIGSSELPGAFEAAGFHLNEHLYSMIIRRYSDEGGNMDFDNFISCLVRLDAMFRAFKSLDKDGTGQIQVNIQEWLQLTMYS

IC50 (gel filtered platelets; Homo sapiens, Platelet): 150 µM
IC50 (platelets [1]; Homo sapiens, Platelet, read-out: IC50 / half-maximal inhibition of P-selectin surface expression): 200 to 300 µM
IC50 (platelets [2]; Platelet): 200 µM
Molecule: CCCC[C@@H](C=O)NC(=O)[C@H](CC(C)C)NC(=O)OCc1ccccc1 [Calpeptin, benzyloxycarbonyl-leucyl-norleucinal]
platelets round and unspread (platelets [2]; pre-treated at 200 μM): 30%

Molecule: CCOC(=O)[C@H]1O[C@@H]1C(=O)N[C@@H](CC(C)C)C(=O)NCCC(C)C [E64d]
IC50 (gel filtered platelets): 340 µM
platelets round and unspread (platelets [2]; pretreated at 250 μM): About 20%
IC50 (platelets [2]): > 250 µM

Molecule: CC(C)[C@H](NC(=O)OCc1ccccc1)C(=O)N[C@H](C=O)Cc1ccccc1 [MDL] (Cbz-Val-Phe-aldehyde)
IC50 (gel filtered platelets): 240 µM
platelets round and unspread (platelets [2]; pre-treated at 200 μM): 30%
IC50 (platelets [2]): 200 µM

Molecule: Cl.N [NH4Cl]
effect on platelet aggregation (gel filtered platelets): does not affect platelet aggregation
effect on platelet spreading (platelets [2]): no effect

Molecule: CC(C)C[C@H](NC(=O)OCc1ccccc1)C(=O)N[C@@H](CC(C)C)C(=O)N[C@@H](Cc1ccc(O)cc1)C(=O)C=[N+]=[N-] [ZLLYCHN2, reference compound] (Cbz-Leu-Leu-Tyr-CHN2)
A23187-dependent calpain degradation of ABP and talin in platelets (calpain): inhibited
effect on platelet spreading (platelets [2]): no inhibitory activity

Molecule: C/C=C(/C)C(=O)O[C@H]1C(C)=C2[C@H]([C@@H]1OC(=O)CCCCCCC)[C@@](C)(OC(C)=O)C[C@H](OC(=O)CCC)[C@@]1(O)[C@H]2OC(=O)[C@@]1(C)O [thapsigargin]
induction of virus (HIV-1) (HIV-1; 1 nM Tpg): 1.37 fold
induction of virus (HIV-1) (HIV-1; 5 nM Tpg): 20 fold
U1 cell viability (U1 cells; 4.0 nM Tpg): about 50%
viability of U1 monocytes (U1 cells; 4 nM thapsigargin, 48 hours, presence or absence of calpain inhibitors): 90%
U1 cell viability (U1 cells; 50 nM Tpg): ~5%

Molecule: EKLGERDDTIPPEYRELLEKKTGV [Calpastatin 24 mer]
effect on platelet aggregation (gel filtered platelets): no measurable effect
effect on platelet aggregation (gel filtered platelets; listed as S-TIPPEYIN lacking the signal sequence): no activity
effect on SFLLR-induced P-selectin surface expression (platelets [1]; pre-incubation, SFLLR stimulation): little effect

inhibition of calpain cleavage of [14C]-methylcasein in a cell-free system (2.7 µM µ-calpain), IC50 [3]: 0.5 µM
inhibition of µ-calpain cleavage of suc-LLVY-AMC (fluorometric calpain assay, 70 nM enzyme), IC50 [3]: 0.05 µM
Molecule: H-AAVALLPAVLLALLAPEKLGERDDTIPPEYRELLEKKTGV-OH [calpastat]
